In patent publication US11767341B2, “Lincosamide antibiotics and uses thereof” (President and Fellows of Harvard College, priority 2017, dated 2023):
Converted amounts (≈) assume the structure as drawn. Read-outs that look alike come from different tables or passages of the source.

How the values were obtained:
Assay in all cases: MIC determination
Assay type in all cases: cell-based
S. aureus ATCC 29213 = conditions: Staphylococcus aureus
S. pyogenes ATCC 19615 = conditions: Streptococcus pyogenes, ATCC19615; S. pyogenes ATCC 19615; read-out: MIC
[1] = system: S. pneumoniae MMX 3028 cErmB; conditions: Streptococcus pneumoniae, MMX3028CERMB
S. pneumoniae ATCC 49619 = conditions: Streptococcus pneumoniae, ATCC49619
B. fragilis ATCC 25285 = conditions: Bacteroides fragilis, ATCC25285
H. influenzae ATCC 49247 = conditions: Haemophilus influenzae, ATCC49247
E. coli ATCC 25922 = conditions: Escherichia coli
E. coli MMX 0121 ΔTolC = conditions: Escherichia coli
[2] = system: E. faecalis MMX 847 Macrolide-Resistant; conditions: Enterococcus faecalis
[3] = system: S. pyogenes MMX 946 Macrolide-Resistant; conditions: Streptococcus pyogenes
[4] = system: S. pneumoniae MMX 3031 cMefA; conditions: Streptococcus pneumoniae, MMX3031CMEFA
S. aureus MMX 3035 cErmA = conditions: Staphylococcus aureus, MMX3035CERMA
[5] = system: P. aeruginosa MMX 3476 Δmex; conditions: Pseudomonas aeruginosa
[6] = system: E. coli MMX TolC parent strain; conditions: Escherichia coli
S. aureus BAA 977 iErmA = conditions: Staphylococcus aureus, BAA977
E. faecalis ATCC 29212 = conditions: Enterococcus faecalis
[7] = system: S. aureus Micromyx USA 300; conditions: Staphylococcus aureus, USA300
C. difficile BAA 1805 = conditions: Clostridioides difficile, BAA1805
[8] = system: P. aeruginosa MMX Mex parent strain; conditions: Pseudomonas aeruginosa
P. aeruginosa ATCC 27853 = conditions: Pseudomonas aeruginosa, ATCC27853
K. pneumoniae ATCC 10031 = conditions: Klebsiella pneumoniae, ATCC10031
[9] = system: E. coli MP-74 LptD mutant; conditions: Escherichia coli
[10] = system: S. aureus MP-549 msr(a) USA 300; conditions: Staphylococcus aureus, USA300, S. aureus MP-549 msr(a) USA 300
E. coli MP-9 ΔTolC = conditions: Escherichia coli
[11] = S. pneumoniae ATCC 49619, read-out: MIC
[12] = H. influenzae ATCC 49247, read-out: MIC
[13] = ATCC29213, S. aureus ATCC 29213, read-out: MIC
[14] = S. pneumoniae MMX 3028 cErmB, read-out: MIC
[15] = ATCC25922, E. coli ATCC 25922, read-out: MIC
[16] = S. aureus MMX 3035 cErmA, read-out: MIC
[17] = S. pyogenes MMX 946 Macrolide-Resistant (MacRes), read-out: MIC
[18] = E. faecalis MMX 847 Macrolide-Resistant (MacRes), read-out: MIC

SMILES | MIC (S. aureus ATCC 29213; ATCC29213) | MIC (S. pyogenes ATCC 19615) | MIC [1] | MIC (S. pneumoniae ATCC 49619; [11]) | MIC (H. influenzae ATCC 49247; [12]) | MIC (E. coli ATCC 25922; ATCC25922) | MIC (E. coli MMX 0121 ΔTolC) | MIC [2] | MIC [4] | MIC (S. aureus MMX 3035 cErmA) | MIC (S. aureus BAA 977 iErmA) | MIC (S. aureus ATCC 29213; [13]) | MIC (E. coli ATCC 25922; [15]) | MIC [9] | MIC (S. aureus MMX 3035 cErmA; [16]) | MIC [10] | MIC (E. faecalis ATCC 29212; ATCC29212, read-out: MIC) | MIC (E. coli MP-9 ΔTolC) | MIC [3, 17] | MIC (K. pneumoniae ATCC 10031) | other results
CSC1O[C@H]([C@H](NC(=O)[C@H]2NC[C@@H]3C=C(c4ccccc4)CCO[C@@H]23)[C@H](C)Cl)C(O)[C@@H](O)[C@H]1O (stereo partly shown) [FSA-507031] | > 32 µg/mL | 32 µg/mL (≈ 62.4 µM) | > 32 µg/mL | 32 µg/mL (≈ 62.4 µM) | 8 µg/mL (≈ 15.6 µM) | > 32 µg/mL | > 32 µg/mL | > 32 µg/mL | 16 µg/mL (≈ 31.2 µM) | > 32 µg/mL | > 32 µg/mL | – | – | – | – | – | – | – | – | – | MIC (B. fragilis ATCC 25285; B. fragilis ATCC 25285, read-out: MIC): 32 µg/mL (≈ 62.4 µM); MIC [3]: > 32 µg/mL; MIC [5]: > 32 µg/mL; MIC [6]: > 32 µg/mL; MIC (E. faecalis ATCC 29212; ATCC29212): > 32 µg/mL; MIC [7]: > 32 µg/mL; MIC (C. difficile BAA 1805): > 32 µg/mL; MIC [8]: > 32 µg/mL; MIC (P. aeruginosa ATCC 27853): > 32 µg/mL
CSC1O[C@H]([C@H](NC(=O)[C@H]2NC[C@@H]3C[C@@H](CCc4cccc(F)c4)CCO[C@H]32)[C@H](C)Cl)C(O)[C@@H](O)[C@H]1O (stereo partly shown) [FSA-510022] | – | ≤ 0.06 µg/mL | – | ≤ 0.06 µg/mL | 1 µg/mL (≈ 1.78 µM) | – | – | – | ≤ 0.06 µg/mL | – | 0.12 µg/mL (≈ 0.214 µM) | 0.12 µg/mL (≈ 0.214 µM) | 32 µg/mL (≈ 57 µM) | 4 µg/mL (≈ 7.13 µM) | 2 µg/mL (≈ 3.56 µM) | 0.12 µg/mL (≈ 0.214 µM) | 0.25 µg/mL (≈ 0.446 µM) | 4 µg/mL (≈ 7.13 µM) | – | – | MIC [1, 14]: 4 µg/mL (≈ 7.13 µM); MIC (K. pneumoniae ATCC 10031; K. pneumoniae ATCC 10031, read-out: MIC): 2 µg/mL (≈ 3.56 µM); MIC ([2]; E. faecalis MMX 847 MacRes, read-out: MIC): 2 µg/mL (≈ 3.56 µM); MIC ([3]; S. pyogenes MMX 946 MacRes, read-out: MIC): 0.5 µg/mL (≈ 0.891 µM)
CSC1O[C@H]([C@H](NC(=O)[C@H]2NC[C@@H]3C=C(c4ccc(C(F)(F)F)cc4)CCO[C@@H]23)[C@H](C)Cl)C(O)[C@@H](O)[C@H]1O (stereo partly shown) [FSA-507053] | – | ≤ 0.06 µg/mL | – | 0.25 µg/mL (≈ 0.43 µM) | – | > 64 µg/mL | 16 µg/mL (≈ 27.5 µM) | > 64 µg/mL | 0.12 µg/mL (≈ 0.207 µM) | > 64 µg/mL | 0.25 µg/mL (≈ 0.43 µM) | 0.25 µg/mL (≈ 0.43 µM) | – | – | – | – | 2 µg/mL (≈ 3.44 µM) | – | 32 µg/mL (≈ 55.1 µM) | – | MIC [1, 14]: 32 µg/mL (≈ 55.1 µM); MIC (B. fragilis ATCC 25285): 16 µg/mL (≈ 27.5 µM); MIC (H. influenzae ATCC 49247): 16 µg/mL (≈ 27.5 µM); MIC [5]: > 64 µg/mL; MIC [6]: > 64 µg/mL; MIC ([7]; S. aureus Micromyx USA 300, read-out: MIC): 0.12 µg/mL (≈ 0.207 µM); MIC (C. difficile BAA 1805; C. difficile BAA 1805, read-out: MIC): 8 µg/mL (≈ 13.8 µM); MIC [8]: > 64 µg/mL; MIC (P. aeruginosa ATCC 27853): > 64 µg/mL
CNC1CCO[C@@H]2[C@H](CN[C@@H]2C(=O)N[C@H]([C@H](C)Cl)[C@H]2OC(SC)[C@H](O)[C@H](O)C2O)C1 (stereo partly shown) [FSA-510065] | > 64 µg/mL | 32 µg/mL (≈ 68.4 µM) | – | – | – | > 64 µg/mL | – | – | – | – | > 64 µg/mL | – | – | > 64 µg/mL | – | > 64 µg/mL | – | > 64 µg/mL | – | > 64 µg/mL | MIC (S. pneumoniae ATCC 49619): > 64 µg/mL; MIC (H. influenzae ATCC 49247): > 64 µg/mL; MIC (E. faecalis ATCC 29212; ATCC29212): > 64 µg/mL; MIC (C. difficile BAA 1805): > 64 µg/mL
CSC1O[C@H]([C@H](NC(=O)[C@H]2NC[C@@H]3C=C(c4ccccc4F)CCO[C@@H]23)[C@H](C)Cl)C(O)[C@@H](O)[C@H]1O (stereo partly shown) [FSA-511073] | – | 0.25 µg/mL (≈ 0.471 µM) | 64 µg/mL (≈ 121 µM) | 0.12 µg/mL (≈ 0.226 µM) | > 64 µg/mL | – | – | – | 0.12 µg/mL (≈ 0.226 µM) | – | 1 µg/mL (≈ 1.88 µM) | 1 µg/mL (≈ 1.88 µM) | > 64 µg/mL | 64 µg/mL (≈ 121 µM) | > 64 µg/mL | 1 µg/mL (≈ 1.88 µM) | 4 µg/mL (≈ 7.53 µM) | 64 µg/mL (≈ 121 µM) | > 64 µg/mL | 64 µg/mL (≈ 121 µM) | MIC [2, 18]: > 64 µg/mL
CSC1O[C@H]([C@H](NC(=O)[C@H]2NC[C@@H]3C=C(c4cccc(F)c4)CCO[C@@H]23)[C@H](C)Cl)C(O)[C@@H](O)[C@H]1O (stereo partly shown) [FSA-511071] | – | 0.5 µg/mL (≈ 0.942 µM) | 64 µg/mL (≈ 121 µM) | 0.25 µg/mL (≈ 0.471 µM) | > 64 µg/mL | – | – | – | 0.5 µg/mL (≈ 0.942 µM) | – | 2 µg/mL (≈ 3.77 µM) | 7 µg/mL (≈ 13.2 µM) | > 64 µg/mL | 64 µg/mL (≈ 121 µM) | > 64 µg/mL | 1 µg/mL (≈ 1.88 µM) | 4 µg/mL (≈ 7.53 µM) | 64 µg/mL (≈ 121 µM) | > 64 µg/mL | 64 µg/mL (≈ 121 µM) | MIC [2, 18]: > 64 µg/mL
